Patent US7582631B2, “Substituted heterocyclic compounds and methods of use” (Amgen Inc., priority 2004, dated 2009)

Tests used:
whole human blood = experiment: Anti-CD3/anti-CD28-induced IL-2 Secretion in Whole Human Blood; assay type: cell-based; conditions: 48 h, IL-2 by ELISA, threshold 5 μM
Method: Anti-CD3/anti-CD28-induced IL-2Secretion in Whole Human Blood
The purpose of this assay is to test the potency of T cell receptor (TCR; CD3) and CD28 signaling pathway inhibitors in whole human blood. Anti-CD3 antibody (10 ug/mL; R&D Systems) is precoated on the wells of 96-well plates. Compounds are added in T-cell dilution media (Iscoves modified DMEM), supplemented with 0.1% human serum albumin, 5 uM Beta-mercaptoethanol, and 1×Pen/Strep/Glu. Compounds are tested in triplicate. 100 μL of whole human blood (collected in heparinized tubes) is added to each well and the plates are incubated for 30 minutes at 37° C., 5% CO2. Anti-CD28 antibody (2 ug/mL; R&D Systems) is diluted in T-cell dilution media and is added to the wells. The mixture is incubated for 48 h at 37° C., 5% CO2. The cells are then pelleted, and the supernatant collected and IL-2 production determined by ELISA (R&D Systems).

human T cells = experiment: Anti-CD3/anti-CD28-induced T cell IL-2 Secretion and Proliferation Assay; assay type: cell-based; conditions: list printed after the T cell IL-2 secretion/proliferation method, threshold 500 μM

IC50 (whole human blood)	SMILES	IC50 (human T cells)
< 5 µM	CCN1CC2CC1CN2c1nc(-c2ccnc(N[C@@H](C)c3ccccc3)c2)nc2ccccc12 (stereo partly drawn) [(S)-{4-[4-(5-Ethyl-(1S,4S)-2,5-diaza-bicyclo[2.2.1]hept-2-yl)-quinazolin-2-yl]-pyridin-2-yl}-(1-phenyl-ethyl)-amine]	–
–	CC(C)N1CC2CC1CN2c1nc(-c2ccnc(N[C@@H](C)c3ccccc3)c2)nc2ccccc12 (stereo partly drawn) [(S)-{4-[4-(5-Isopropyl-(1S,4S)-2,5-diaza-bicyclo[2.2.1]hept-2-yl)-quinazolin-2-yl]-pyridin-2-yl}-(1-phenyl-ethyl)-amine]	< 500 µM
–	C[C@H](Nc1cc(-c2nc(N3CC4CC3CN4C)c3ccccc3n2)ccn1)c1ccccc1 (stereo partly drawn) [(S)-{4-[4-(5-Methyl-(1S,4S)-2,5-diaza-bicyclo[2.2.1]hept-2-yl)-quinazolin-2-yl]-pyridin-2-yl}-(1-phenyl-ethyl)-amine]	< 500 µM
< 5 µM	Fc1ccc2c(N3CC4CC3CN4)nn(-c3ccnc(NCc4ccccc4)c3)c2c1 [Benzyl-{4-[3-((1S,4S)-2,5-diaza-bicyclo[2.2.1]hept-2-yl)-6-fluoro-indazol-1-yl]-pyridin-2-yl}-amine]	< 500 µM
< 5 µM	C[C@H](Nc1cc(-c2cc3nccn3c(N3C[C@@H]4C[C@H]3CN4)n2)ccn1)c1ccccc1 [Example 3, (S)-{4-[5-((1S,4S)-2,5-Diaza-bicyclo[2.2.1]hept-2-yl)-imidazo[1,2-c]pyrimidin-7-yl]-pyridin-2-yl}-(1-phenyl-ethyl)-amine]	–
< 5 µM	CC(C)N1C[C@@H]2C[C@H]1CN2c1nc(-c2ccnc(N[C@@H](C)c3ccccc3)c2)cc2nccn12 [Example 4, (S)-{4-[5-(5-Isopropyl-(1S,4S)-2,5-diaza-bicyclo[2.2.1]hept-2-yl)-imidazo[1,2-c]pyrimidin-7-yl]-pyridin-2-yl}-(1-phenyl-ethyl)-amine]	< 500 µM
< 5 µM	CCN1C[C@@H]2C[C@H]1CN2c1nc(-c2ccnc(N[C@@H](C)c3ccccc3)c2)cc2nccn12 [Example 5, (S)-{4-[5-(5-Ethyl-(1S,4S)-2,5-diaza-bicyclo[2.2.1]hept-2-yl)-imidazo[1,2-c]pyrimidin-7-yl]-pyridin-2-yl}-(1-phenyl-ethyl)-amine]	–
< 5 µM	C[C@H](Nc1cc(-n2nc(N3C[C@@H]4C[C@H]3CN4)c3ccccc32)ccn1)c1ccccc1F [Example 24, (S)-{4-[3-((1S,4S)-2,5-Diaza-bicyclo[2.2.1]hept-2-yl)-indazol-1-yl]-pyridin-2-yl}-[1-(2-fluoro-phenyl)-ethyl]-amine]	–
–	C[C@H](Nc1cc(-n2nc(N3C[C@@H]4C[C@H]3CN4)c3ccccc32)ccn1)c1ccccc1 [Example 43, (S)-{4-[3-((1s, 4S)-2,5-Diaza-bicyclo[2.2.1]hept-2-yl)-indazol-1-yl]-pyridin-2-yl}-(1-phenyl-ethyl)-amine]	< 500 µM
< 5 µM	CC(C)N1C[C@@H]2C[C@H]1CN2c1nn(-c2ccnc(N[C@@H](C)c3ccccc3)c2)c2ccccc12 [Example 44, (S)-{4-[3-(5-Isopropyl-(1S,4S)-2,5-diaza-bicyclo[2.2.1]hept-2-yl)-indazol-1-yl]-pyridin-2-yl}-(1-phenyl-ethyl)-amine]	< 500 µM
< 5 µM	C[C@H](Nc1cc(-c2nc(N3C[C@@H]4C[C@H]3CN4)c3ccccc3n2)ccn1)c1ccccc1 [Example 49, {4-[4-((1S,4S)-2,5-Diaza-bicyclo[2.2.1]hept-2-yl)-quinazolin-2-yl]-pyridin-2-yl}-(S)-(1-phenyl-ethyl)-amine]	< 500 µM
–	C[C@H](Nc1cc(-c2cc(N3C[C@@H]4C[C@H]3CN4)c3ccccc3n2)ccn1)c1ccccc1 [Example 51, (S)-{4-[4-((1S,4S)-2,5-Diaza-bicyclo[2.2.1]hept-2-yl)-quinolin-2-yl]-pyridin-2-yl}-(1-phenyl-ethyl)-amine]	< 500 µM
< 5 µM	CC(C)N1C[C@@H]2C[C@H]1CN2c1cc(-c2ccnc(N[C@@H](C)c3ccccc3)c2)nc2ccccc12 [Example 52, (S)-{4-[4-(5-Isopropyl-(1S,4S)-2,5-diaza-bicyclo[2.2.1]hept-2-yl)-quinolin-2-yl]-pyridin-2-yl}-(1-phenyl-ethyl)-amine]	< 500 µM
< 5 µM	Fc1ccccc1CNc1cc(-c2cc3nccn3c(N3C[C@@H]4C[C@H]3CN4)n2)ccn1 [Example 57, {4-[5-((1S,4S)-2,5-Diaza-bicyclo[2.2.1]hept-2-yl)-imidazo[1,2-c]pyrimidin-7-yl]-pyridin-2-yl}-(2-fluoro-benzyl)-amine]	< 500 µM
–	CCN1C[C@@H]2C[C@H]1CN2c1nc(-c2ccnc(N[C@@H](C)c3ccccc3)c2)nc2ccccc12 [Example 64, (S)-{4-[4-(5-Ethyl-(1S,4S)-2,5-diaza-bicyclo[2.2.1]hept-2-yl)-quinazolin-2-yl]-pyridin-2-yl}-(1-phenyl-ethyl)-amine]	< 500 µM
< 5 µM	CC(C)N1C[C@@H]2C[C@H]1CN2c1nc(-c2ccnc(N[C@@H](C)c3ccccc3)c2)nc2ccccc12 [Example 65, (S)-{4-[4-(5-Isopropyl-(1S,4S)-2,5-diaza-bicyclo[2.2.1]hept-2-yl)-quinazolin-2-yl]-pyridin-2-yl}-(1-phenyl-ethyl)-amine]	–
< 5 µM	CC(C)N1C[C@@H]2C[C@H]1CN2c1nccc(-c2ccnc(N[C@@H](C)c3ccccc3)c2)n1 [Example 66, (S)-{4-[2-(5-Isopropyl-(1S,4S)-2,5-diaza-bicyclo[2.2.1]hept-2-yl)-pyrimidin-4-yl]-pyridin-2-yl}-(1-phenyl-ethyl)-amine]	–
< 5 µM	c1ccc(CNc2cc(-n3nc(N4C[C@@H]5C[C@H]4CN5)c4ccccc43)ccn2)cc1 [Example 69]	< 500 µM
